Structures can show the parent of a compound that is named as a salt. ± gives the standard error.

The subject of one assay is 621-102 (TSC2-deficient). The experiment in a line: relative viability vs DMSO; higher = less cytotoxic. The conditions noted are these: serum: 10% FBS, 72 h.
A further assay deals with 621-103 (TSC2-rescued). The assay is described as above. The conditions noted are these: serum: 10% FBS, 72 h.
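Note: immortalized renal angiomyolipoma cells stably carrying empty vector or TSC2, dosed in 384-well plates in DMEM, viability normalized to vehicle-treated wells within each plate.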

For `COc1ccc(C(CN(C)C)C2(O)CCCCC2)cc1` (stereo not given) [Venlafaxine HCl], the relative viability stood at 74.8 ± 0.85% in the assay with 621-102 (TSC2-deficient) (0.0001 µM); 101 ± 2.7% in the assay with 621-102 (TSC2-deficient) (0.001 µM); 96.3 ± 9.2% in the assay on 621-102 (TSC2-deficient) (0.01 µM); 107 ± 5.2% in the assay on 621-102 (TSC2-deficient) (0.1 µM); 91.33 ± 0.33% with 621-102 (TSC2-deficient) (1 µM); 91.6 ± 2.6% in the assay on 621-102 (TSC2-deficient) (10 µM). Further, the relative viability with 621-103 (TSC2-rescued) (0.0001 µM) came to 85.8 ± 1.9%; in the assay with 621-103 (TSC2-rescued) (0.001 µM), 109.5 ± 0.37%; in the assay with 621-103 (TSC2-rescued) (0.01 µM), 101 ± 4.2%; in the assay on 621-103 (TSC2-rescued) (0.1 µM), 99.6 ± 1.8%; with 621-103 (TSC2-rescued) (1 µM), 96.1 ± 5%; with 621-103 (TSC2-rescued) (10 µM) it was 90.61 ± 0.47%.

In the case of `N#C/C(=C\c1ccc(O)c(O)c1)C(=O)NCc1ccccc1` [AG-490], the relative viability in the assay with 621-102 (TSC2-deficient) (0.0001 µM) was determined as 99.7 ± 2.8%; with 621-102 (TSC2-deficient) (0.001 µM), 98.6 ± 3.6%; with 621-102 (TSC2-deficient) (0.01 µM), 92.6 ± 2.9%; with 621-102 (TSC2-deficient) (0.1 µM), 104 ± 2.4%; in the assay on 621-102 (TSC2-deficient) (1 µM), 99.2 ± 6.6%; with 621-102 (TSC2-deficient) (10 µM), 81 ± 1.6%. The relative viability amounted to 109 ± 1.2% in the assay with 621-103 (TSC2-rescued) (0.0001 µM); 109 ± 3.9% in the assay with 621-103 (TSC2-rescued) (0.001 µM); 108 ± 2% in the assay with 621-103 (TSC2-rescued) (0.01 µM); 114 ± 1.2% with 621-103 (TSC2-rescued) (0.1 µM); 107 ± 1% with 621-103 (TSC2-rescued) (1 µM); 83.8 ± 3.9% in the assay on 621-103 (TSC2-rescued) (10 µM).

In the case of `Cc1nc(N)sc1-c1ccnc(Nc2ccc(N3CCOCC3)cc2)n1` [CYC116], the relative viability came to 90.7 ± 2.7% with 621-102 (TSC2-deficient) (0.0001 µM); 102 ± 4.6% in the assay on 621-102 (TSC2-deficient) (0.001 µM); 113.07 ± 0.029% in the assay with 621-102 (TSC2-deficient) (0.01 µM); 100.4 ± 0.47% in the assay on 621-102 (TSC2-deficient) (0.1 µM); 93.08 ± 0.77% in the assay with 621-102 (TSC2-deficient) (1 µM); 50.55 ± 0.13% in the assay with 621-102 (TSC2-deficient) (10 µM). Also, the relative viability came out at 91.6 ± 5.4% in the assay on 621-103 (TSC2-rescued) (0.0001 µM); 94.51 ± 0.42% in the assay on 621-103 (TSC2-rescued) (0.001 µM); 101.6 ± 0.83% in the assay on 621-103 (TSC2-rescued) (0.01 µM); 95.1 ± 4.3% with 621-103 (TSC2-rescued) (0.1 µM); 72 ± 3.4% in the assay with 621-103 (TSC2-rescued) (1 µM); 28.3 ± 0.44% in the assay on 621-103 (TSC2-rescued) (10 µM).

For `Nc1cc(C(F)(F)F)c(-c2cc(N3CCOCC3)nc(N3CCOCC3)n2)cn1` [BKM120 (NVP-BKM120)], the relative viability worked out at 97 ± 2% in the assay on 621-102 (TSC2-deficient) (0.0001 µM); 102 ± 3.6% in the assay on 621-102 (TSC2-deficient) (0.001 µM); 95.9 ± 2.2% in the assay with 621-102 (TSC2-deficient) (0.01 µM); 92.9 ± 2.6% in the assay on 621-102 (TSC2-deficient) (0.1 µM); 71.9 ± 3.6% in the assay with 621-102 (TSC2-deficient) (1 µM); 20.01 ± 0.19% in the assay on 621-102 (TSC2-deficient) (10 µM). The relative viability in the assay with 621-103 (TSC2-rescued) (0.0001 µM) came to 102 ± 2.4%; in the assay with 621-103 (TSC2-rescued) (0.001 µM) it was 112 ± 2.3%; in the assay with 621-103 (TSC2-rescued) (0.01 µM), 109.19 ± 0.024%; in the assay on 621-103 (TSC2-rescued) (0.1 µM), 104 ± 5%; with 621-103 (TSC2-rescued) (1 µM), 58.5 ± 2.1%; in the assay on 621-103 (TSC2-rescued) (10 µM) it was 21 ± 0.97%.

For `Cc1nc(Nc2ncc(C(=O)Nc3c(C)cccc3Cl)s2)cc(N2CCN(CCO)CC2)n1` [Dasatinib], the relative viability with 621-102 (TSC2-deficient) (0.0001 µM) was found to be 71.7 ± 5.2%; in the assay with 621-102 (TSC2-deficient) (0.001 µM) it was 85.1 ± 7.2%; with 621-102 (TSC2-deficient) (0.01 µM), 70.7 ± 7.3%; with 621-102 (TSC2-deficient) (0.1 µM) it was 67.6 ± 4.7%; with 621-102 (TSC2-deficient) (1 µM) it was 67.5 ± 5.2%; with 621-102 (TSC2-deficient) (10 µM), 49.9 ± 2.6%. The relative viability in the assay with 621-103 (TSC2-rescued) (0.0001 µM) came to 92.9 ± 1.8%; in the assay with 621-103 (TSC2-rescued) (0.001 µM), 79 ± 2%; in the assay with 621-103 (TSC2-rescued) (0.01 µM) it was 74.3 ± 4.4%; in the assay on 621-103 (TSC2-rescued) (0.1 µM), 73.9 ± 5.5%; in the assay with 621-103 (TSC2-rescued) (1 µM), 61.2 ± 4.1%; in the assay with 621-103 (TSC2-rescued) (10 µM), 47.4 ± 2%.

In the case of `COCC(=O)NC/C=C/c1ccc2ncnc(Nc3ccc(Oc4ccc(C)nc4)c(C)c3)c2c1`, the relative viability in the assay on 621-102 (TSC2-deficient) (0.0001 µM) stood at 100 ± 2.7%; in the assay on 621-102 (TSC2-deficient) (0.001 µM) it was 97.758 ± 0.079%; in the assay with 621-102 (TSC2-deficient) (0.01 µM), 97.3 ± 1.7%; with 621-102 (TSC2-deficient) (0.1 µM) it was 93.9 ± 1.9%; with 621-102 (TSC2-deficient) (1 µM), 98.9 ± 2.8%; in the assay on 621-102 (TSC2-deficient) (10 µM), 93.2 ± 2.4%. In addition, the relative viability turned out to be 101 ± 1.9% with 621-103 (TSC2-rescued) (0.0001 µM); 101.6 ± 0.36% with 621-103 (TSC2-rescued) (0.001 µM); 103.06 ± 0.024% in the assay with 621-103 (TSC2-rescued) (0.01 µM); 104 ± 1.2% in the assay on 621-103 (TSC2-rescued) (0.1 µM); 103.7 ± 0.92% with 621-103 (TSC2-rescued) (1 µM); 107.8 ± 0.28% with 621-103 (TSC2-rescued) (10 µM).

Turning to `CNC(=O)c1ccc(C)c(-n2c(C)cc(OCc3ccc(F)cc3F)c(Br)c2=O)c1`, the relative viability in the assay with 621-102 (TSC2-deficient) (0.0001 µM) was found to be 105 ± 5.5%; with 621-102 (TSC2-deficient) (0.001 µM), 101 ± 2.1%; with 621-102 (TSC2-deficient) (0.01 µM), 109.06 ± 0.1%; with 621-102 (TSC2-deficient) (0.1 µM), 109 ± 1.6%; with 621-102 (TSC2-deficient) (1 µM), 97.8 ± 1.9%; in the assay on 621-102 (TSC2-deficient) (10 µM), 103 ± 0.24%. The relative viability in the assay with 621-103 (TSC2-rescued) (0.0001 µM) amounted to 102 ± 4.2%; with 621-103 (TSC2-rescued) (0.001 µM) it was 102 ± 2.3%; with 621-103 (TSC2-rescued) (0.01 µM) it was 99 ± 1%; in the assay with 621-103 (TSC2-rescued) (0.1 µM), 97.6 ± 0.99%; in the assay on 621-103 (TSC2-rescued) (1 µM), 99.4 ± 1.4%; in the assay with 621-103 (TSC2-rescued) (10 µM) it was 95 ± 2.2%.

On to `NC12CC3CC(CC(C3)C1)C2` [Amantadine HCl (Symmetrel)], for which the relative viability in the assay with 621-102 (TSC2-deficient) (0.0001 µM) amounted to 97.2 ± 2.8%; with 621-102 (TSC2-deficient) (0.001 µM), 96.9 ± 4.5%; in the assay with 621-102 (TSC2-deficient) (0.01 µM) it was 94.9 ± 3.8%; in the assay with 621-102 (TSC2-deficient) (0.1 µM), 98.5 ± 3.3%; with 621-102 (TSC2-deficient) (1 µM), 100.9 ± 0.5%; in the assay on 621-102 (TSC2-deficient) (10 µM), 98.09 ± 0.17%. Further, the relative viability stood at 92.2 ± 5.4% in the assay on 621-103 (TSC2-rescued) (0.0001 µM); 98.7 ± 2.9% in the assay on 621-103 (TSC2-rescued) (0.001 µM); 106 ± 2.3% in the assay on 621-103 (TSC2-rescued) (0.01 µM); 111 ± 3.6% in the assay with 621-103 (TSC2-rescued) (0.1 µM); 108 ± 1.8% in the assay with 621-103 (TSC2-rescued) (1 µM); 96.89 ± 0.4% with 621-103 (TSC2-rescued) (10 µM).

In the case of `NC(=O)c1ccc(N(C(N)=O)c2c(F)cccc2F)nc1-c1ccc(F)cc1F` [VX-702], the relative viability with 621-102 (TSC2-deficient) (0.0001 µM) was found to be 107 ± 1.9%; with 621-102 (TSC2-deficient) (0.001 µM), 109 ± 1.9%; in the assay on 621-102 (TSC2-deficient) (0.01 µM), 96.7 ± 1.6%; with 621-102 (TSC2-deficient) (0.1 µM) it was 98.6 ± 1.4%; with 621-102 (TSC2-deficient) (1 µM), 111.1 ± 0.41%; in the assay on 621-102 (TSC2-deficient) (10 µM), 104 ± 4%. Also, the relative viability with 621-103 (TSC2-rescued) (0.0001 µM) is 101.5 ± 0.42%; in the assay on 621-103 (TSC2-rescued) (0.001 µM), 99.8 ± 1.8%; in the assay with 621-103 (TSC2-rescued) (0.01 µM), 99.92 ± 0.12%; with 621-103 (TSC2-rescued) (0.1 µM) it was 99.4 ± 1.5%; with 621-103 (TSC2-rescued) (1 µM), 96.56 ± 0.13%; in the assay on 621-103 (TSC2-rescued) (10 µM) it was 99.1 ± 1.8%.

As to `CCOc1ccccc1OCCN[C@H](C)Cc1ccc(OC)c(S(N)(=O)=O)c1` [Tamsulosin HCl], the relative viability was 104 ± 3.8% with 621-102 (TSC2-deficient) (0.0001 µM); 99.7 ± 2.3% in the assay on 621-102 (TSC2-deficient) (0.001 µM); 99.5 ± 2.2% with 621-102 (TSC2-deficient) (0.01 µM); 102 ± 5% in the assay on 621-102 (TSC2-deficient) (0.1 µM); 97 ± 3.9% in the assay with 621-102 (TSC2-deficient) (1 µM); 98.4 ± 4% in the assay with 621-102 (TSC2-deficient) (10 µM). Moreover, the relative viability came out at 107 ± 5.6% in the assay on 621-103 (TSC2-rescued) (0.0001 µM); 104 ± 4.7% with 621-103 (TSC2-rescued) (0.001 µM); 105 ± 2% with 621-103 (TSC2-rescued) (0.01 µM); 103 ± 2.4% in the assay on 621-103 (TSC2-rescued) (0.1 µM); 96.4 ± 7% in the assay on 621-103 (TSC2-rescued) (1 µM); 98.4 ± 2.6% in the assay on 621-103 (TSC2-rescued) (10 µM).

For the origin of these results see the supplement of paper PMC8960247.
